The text below walks through data of patent publication US20180085341A1, “METHODS FOR TREATING CANCER” (BOSTON BIOMEDICAL, INC., priority 2015, published 2018).

Data set [1] deals with pStat3 and β-catenin. Description: cancer stemness biomarkers in pancreatic adenocarcinoma cancer stem cells (Panc-1) in vitro. In kind it is cell-based, human. The following applies: Panc-1 cancer stem cells, FIG. 6.
Data set [2] has as its system patients with advanced, previously treated pancreatic adenocarcinoma. The following applies: weekly paclitaxel alone; Oettle et al, Anticancer Drugs 2000; cited from earlier work.
Data set [3] concerns human lung cancer xenograft (A549). Description: human lung cancer xenograft (A549) model, metabolic tumor volume. It counts as in vivo, mice. The following applies: 2-acetylnaphtho[2,3-b]furan-4,9-dione 100 mg/kg daily oral, paclitaxel 10.0 mg/kg q3d iv, relative to control, FIG. 7. The protocol:
The effects of 2-acetylnaphtho[2,3-b]furan-4,9-dione was examined in a human lung cancer xenograft (A549) model. Human lung cancer cells were implanted in mice and the resulting tumors were allowed to grow to a pre-determined size. Mice were treated orally with vehicle, 2-acetylnaphtho[2,3-b]furan-4,9-dione (100 mg/kg, daily, oral), paclitaxel (10.0 mg/kg, q3d, iv), or the combination of 2-acetylnaphtho[2,3-b]furan-4,9-dione (100 mg/kg, daily, oral) and paclitaxel (10.0 mg/kg, q3d, iv). The tumor sizes were monitored.
(A xenograft is tissue or cells of one species grown in another, often human tumour cells in immunodeficient mice.)

Data set [4] deals with cancer patients (CRC patients). Briefly: clinical trials, survival by Stat3/pStat3 expression level. It counts as in vivo, human. The following applies: after treatment in clinical trials; at least in CRC patients. An excerpt:
Thus, the higher the level of pStat3 found in a cancer patient before treatment, at least in CRC patients, the higher the overall survival (OS) upon administering a treatment comprising a compound of formula (I).

Data set [5] in a line: open label phase Ib dose-escalation study, safety, tolerability and RP2D. It counts as in vivo, human. The following applies: in combination with weekly paclitaxel. The protocol:
In the open label phase lb dose-escalation study, the safety, tolerability and recommended phase 2 dose (RP2D) of 2-acetylnaphtho[2,3-b]furan-4,9-dione in combination with paclitaxel were assessed in adult patients with advanced solid tumors.
The effects of 2-acetylnaphtho[2,3-b]furan-4,9-dione in combination with paclitaxel were clinically evaluated. […] Phase II accrual to disease-specific cohorts included patients with advanced, heavily pre-treated metastatic non-small cell lung cancer (NSCLC).

For data set [6], the system named is p-Stat3 and β-catenin. Briefly: cancer stemness biomarkers in human colon cancer xenograft tumor (SW480), immunofluorescence. The following applies: SW480 xenograft in nude mice, e.g. 50 mg/kg BID oral gavage, tumors harvested 24 hours after first dosing, FIG. 5. It counts as in vivo. As for the experimental part: The effects of 2-acetylnaphtho[2,3-b]furan-4,9-dione, a compound of formula (I), on cancer stem cell markers was examined in cancer xenograft models with and without paclitaxel.
Human cancer cells were subcutaneously implanted into the right flank of 5-7 weeks old female athymic nude mice. When tumor size reached 200 mm^3, animals were treated with 2-acetylnaphtho[2,3-b]furan-4,9-dione, for example, at 50 mg/kg (BID) by oral gavage (n=3/group), paclitaxel, or a combination of 2-acetylnaphtho[2,3-b]furan-4,9-dione and paclitaxel. Tumors were harvested at 24 hours after first dosing.
The harvested tissues were fixed in 3.7% neutral buffered formaldehyde at 4° C. for overnight. The paraffin was embedded, cut to about 5 microns, and affixed onto positively-charged slides. After being baked and de-paraffinized, the slides with tumor or control tissues were incubated in 10 mM sodium citrate (pH 6.0) for 10 minutes. After antigen retrieval, slides were probed with primary antibodies P-STAT3 (rabbit, Cell Signaling, 1:100), β-Catenine (mouse, Santa Cruz, 1:400) at 4° C. overnight, and then Alexa Fluor fluorescent dyes-conjugated secondary antibodies (1:500, Invitrogen). After mounting, the slides with ProLong mounting medium with DAPI (Invitrogen) were examined under a Zeiss fluorescence microscope with 20× objective, and analyzed with Zen software.

The subject of data set [7] is Stat3 pathway. The following applies: cellular; according to U.S. Pat. No. 8,877,803; cited from earlier work.

On to `CC(=O)O[C@H]1C(=O)[C@@]2(C)[C@H]([C@H](OC(=O)c3ccccc3)[C@]3(O)C[C@H](OC(=O)[C@H](O)[C@@H](NC(=O)c4ccccc4)c4ccccc4)C(C)=C1C3(C)C)[C@]1(OC(C)=O)CO[C@@H]1C[C@@H]2O` [paclitaxel], for which the “staining for stem cell markers (pStat3, β-catenin)” value in data set [1] is recorded as “enhanced staining”. The “median overall survival (mOS)” value in data set [2] was “about 17.5 weeks”. Also, the metabolic tumor volume entry in data set [3] is listed as “reduced metabolic tumor volume relative to control”.
Consider `CC(=O)c1cc2c(o1)C(=O)c1ccccc1C2=O` [2-acetylnaphtho[2,3-b]furan-4,9-dione], for which the “overall survival of patients with higher expression levels of Stat3” value in data set [4] is “prolonged overall survival”. Moreover, the metabolic tumor volume result in data set [3] is “reduced metabolic tumor volume relative to control”. Also, the “recommended phase 2 dose of 2-acetylnaphtho[2,3-b]furan-4,9-dione” value in data set [5] was determined as 480 mg BID. The “expression of p-Stat3 and β-catenin stem cell markers” value in data set [6] is recorded as “dramatically reduced expression”. In addition, in data set [7], the IC50 – broadly, the concentration at which inhibition is half-maximal – is around 250 nM.
